Assay results reported in patent US9487561B2, “Biologically active complex and its preparation” (HAMLET PHARMA AB, priority 2010, dated 2016).

Tests used:
[1] = tested on: A549 lung carcinoma cells; assay: cell death assay (trypan blue exclusion, ATP levels); type: cell-based, human; settings: 30 minutes pretreatment, HAMLET three hours
Experimental: (§1) Cells were detached from cell culture flasks with versen (0.2 g EDTA in 200 ml H2O and 800 ml PBS), washed with PBS and resuspended in serum-free RPMI-1640. HAMLET dissolved in PBS was incubated with cells (0.5×10^6/ml for A549, A498 and HeLa cells; 1×10^6/ml for Jurkat) at 37° C. FCS was added after 1 hour. Cell death was quantified by trypan blue exclusion (Chroma Gesellschaft Schmid & Co) or by measuring ATP levels (ATPlite Kit, PerkinElmer, Infinite 200, Tecan). Light images were captured using the HOLOMONITOR™ M2 digital holographic microscope (Phase Holographic Imaging AB, Lund, Sweden).
For studies with inhibitors, cells were pretreated for 30 minutes. Inhibitors used were Gadolinium chloride (GdCl3, 100 μM), Barium chloride (BaCl2, 1 mM), Ruthenium red (30 μM), tetrandrine (10 μM) and amiloride (1 mM), all from Sigma Aldrich. For p38 inhibition, SB202190 (20 μM, Sigma Aldrich) or BIRB796 (10 μM, Axon Medchem) dissolved in DMSO was used. The wells were washed twice with PBS and new medium with inhibitor was added. For RNA interference, FlexiTube siRNA Premixes against MAPK11 (SI00606053), MAPK14 (SI00300769) and All Star Negative Control siRNA (SI03650318) from Qiagen was used. A549 forward was transfected using 25 nM final siRNA concentration in 24-well plate. After 48 hours, knockdown was examined by Western blot (anti-p38, 1:1000, Cell Signaling) and RT-PCR (MAPK14, QT00079345, QIAGEN).
To examine if functional ion channels are important for the tumoricidal activity of HAMLET, A549 lung carcinoma cells in suspension were pretreated with the channel inhibitors for 30 minutes and exposed to increasing concentrations of HAMLET for three hours.
A549 cells were seeded to a density of 0.8-1.0×10^6 cells/well in RPMI without FCS. Different volumes of HAMLET/oleate and oleic acid solutions were added. The cells were incubated for 1 hour at 37° C. 5% CO2 for 1 hour before 50 μl of FCS (5% final concentration) were added to the wells. The cells were then further incubated for additional 2 hours before the viability were determined by trypan blue exclusion and ATP measurements.

[2] = tested on: lung carcinoma, kidney carcinoma and lymphoma cells; assay: HAMLET-induced change in cell morphology (light microscopy, real-time imaging); type: cell-based; settings: light microscopy
Experimental: as §1
For live cell imaging, cells were pre-treated with SB202190 for 30 minutes, nuclei were stained with Hoechst 33342 (Invitrogen) and Alexa-Fluor 568-labeled HAMLET (10% labeled HAMLET, Molecular Probes) was added in serum-free medium. FCS was added after 1 hour. Fluorescence was detected with pinhole settings corresponding to 1 airy unit. The cells were kept at 37° C., 5% CO2 and examined unfixed by LSM510 DUO confocal microscopy (Carl Zeiss).
To examine if the HAMLET-induced change in carcinoma cell morphology was modified by the channel inhibitors, lung carcinoma, kidney carcinoma and lymphoma cells were exposed to HAMLET in the presence or absence of ion channel inhibitors and examined by light microscopy (FIG. 2C).
To determine if p38 signaling was involved in cell death, we inhibited p38α and p38β in lung and kidney carcinoma and Jurkat lymphoma cells with two small-molecule p38 inhibitors: SB202190, a highly specific pyridinyl-imidazole inhibitor; and BIRB796, a diaryl urea compound, which bears little structural similarity to SB202190 (Fabian et al., 2005, Nature Biotechnology 23: 329-336), ([…] and FIG. 12B). […] The effect of p38 inhibition on cell death was also observed by real-time confocal imaging of lung carcinoma cells exposed to fluorescently labeled HAMLET.

[3] = tested on: potassium channels in A549, lung carcinoma cell lines; assay: FLUXOR potassium (K^+) channel assay, Thallium (Tl^+) indicator; type: cell-based, human; settings: HAMLET 35 μM; oleate 175 μM (5× the HAMLET concentration); peptides mixed with oleate and immediately added
Experimental: (§2) The FLUXOR™ potassium (K^+) channel assay was performed on the TECAN infinite F200 (Tecan Group, Switzerland), according to the manufacturer's instructions (Invitrogen). Briefly, this involved FLUXOR™ loading buffer (Hank's Balanced Saline Solution, (HBSS) buffered with 20 mM HEPES and pH adjusted to 7.4 with NaOH. POWERLOAD™ concentrate and water-soluble Probenecid were used respectively to enhance the dye solubility and retention, respectively. Media were removed from the cell plates manually, and 80 μL of loading buffer containing the FLUXOR™ dye mix was applied to each well. Once inside the cell, the nonfluorescent AM ester form of the FLUXOR™ dye is cleaved by endogenous esterases into a thallium-sensitive indicator. The dye was loaded for 60 minutes at room temperature and then removed with the supernatant. After washing with dye-free PBS buffer, a final volume of 80 μL assay buffer containing water-soluble probenecid was added. Cells received one of the following channel inhibitors: 3.3 μL per well of 30 mM amiloride, 3.0 μL of 32 mM BaCl2, 1.8 μL of 5.4 mM gadolinium, 3 μL 3.2 mM tetrandrine and 2.3 μL of 2.6 mM ruthenium red, and were then incubated at room temperature (23-25° C.) for 30 minutes to allow equilibration of the test compounds. Prior to injection, stimulation buffer was prepared from the chloride-free buffer and thallium reagents provided in the kit as well as HAMLET, to achieve a final added concentrations of 2 mM free Tl+ and 35 μM HAMLET after 1:5 dilution upon injection of the stimulus buffer onto cells that had been loaded with FLUXOR™ dye.
To distinguish Ca^2+ mobilization from intracellular stores from the influx of extracellular Ca^2+, EGTA was then added to the cell medium. […] K^+ fluxes across tumor cell membranes were subsequently quantified under the same experimental conditions, using the fluorophore FLUXOR™, which fluoresces after thallium has entered cells through K^+ channels.
Potassium channel activity was therefore measured in A549, lung carcinoma cell lines using an indicator, which emits fluorescence signal upon entering the cells via opened potassium channels, Thallium (Tl^+) indicator (FIG. 18).

[4] = tested on: A549 lung carcinoma cells; assay: global transcriptional response, whole genome arrays (Affymetrix); type: cell-based, human; settings: Example 5, Affymetrix U219, adjusted p-value <0.05 and log 2-foldchange of 1
Experimental: For the microarray analysis with ion channel inhibitors, 200,000 A549 cells/well were allowed to adhere overnight on a 6-well plate. After 1 hour of HAMLET treatment, the cells were lysed and RNA was extracted using the RNeasy Mini Kit (QIAGEN). The samples were sent to AROS Applied Biotechnology (Århus, Denmark) for analysis. Data was preprocessed using RMA implemented in the free software packages “affy” as provided by R and Bioconductor (<www.r-project.org>). Differentially expressed genes were identified using empirically Bayes adjusted t-statistics and characterized using the Functional Annotation Clustering Tool in the Database for Annotation, Visualization and Integrated Discovery (DAVID), (Dennis et al., 2003 Genome Biology 4(5): P3) and Ingenuity Pathway Analysis (Ingenuity Systems). All microarray data were registered into NCBI's Gene Expression Omnibus (GEO) database (<www.ncbi.nlm.nih.gov/projects/geo>) with accession numbers GSE23772.
To understand the mechanisms of carcinoma cell death and the contribution of ion channel activation, the global transcriptional response to HAMLET was examined, using whole genome arrays. A549 lung carcinoma cells were exposed to HAMLET (21 μM) for one hour and cells pretreated with amiloride were compared to cells in medium alone. […] An unbiased global overview of transcription was obtained by performing a hierarchical clustering of the top 3000 genes by variance and was visualized in a heatmap (FIG. 2D and FIG. 13). Genes with empirical Bayes adjusted p-values <0.05 and log 2 fold changes >1 were considered differentially expressed and were functionally characterized using Database for Annotation, Visualization and Integrated Discovery, (Dennis et al., supra, 2003) and Ingenuity Pathway Analysis.
In total 12 RNA samples were generated (triplicate of control, oleic Acid, HAMLET, and oleate-treated) and hybridized to Affymetrix Whole Genome microarrays U219. […] For statistical analysis normalized data were linear model fitted and Empirical Bayesian analysis, coupled with p-value adjustment, performed.

tumor cells [5] = assay: ion fluxes (Ca^2+, K^+, Na^+) quantified by fluorometry; type: cell-based; settings: for fluxes of Ca^2+, K^+ and Na^+: FIG. 1B
Experimental: FIG. 1. […] (A, upper panels) Bright-field micrographs showing glass-adherent egg yolk vesicles before and after a 40-minute exposure to HAMLET, α-lactalbumin (HLA) or oleic acid (OA). Morphology was recorded by differential interference contrast microscopy. Scale bar […]. […] (A, lower panels) Effect of HAMLET on PMVs from lung carcinoma cells. PMVs on glass-bottom dishes were exposed to HAMLET, HLA or OA and stained with Nile red for confocal microscopy. […] As a control PMVs from healthy, differentiated cells on glass-bottom dishes were also exposed to HAMLET and stained with Nile red.
FIG. 7. Ion Fluxes. (A) Ion fluxes induced by HAMLET (35 μM) or it constituents (35 μM All-ala α-lactalbumin or 175 μM sodium oleate) were quantified by fluorometry, as described. […] (B) The global transcriptional response to HAMLET was studied by microarray and the top 3000 genes by variance visualized in a Heatmap. […] Darker bands=high expression, lighter bands=low.
as §2

tumor cells [6] = assay: Tumoricidal Activity of Oleate-HAMLET (cell death method of Example 1); type: cell-based
[7] = 35 μM All-ala α-lactalbumin or 175 μM sodium oleate, FIG. 7A

Which results are given for N.N.N.N.N.N.N.N.N.N.N.N.N.N.[Cl-].[Cl-].[Cl-].[Cl-].[Cl-].[Cl-].[O-2].[O-2].[Ru+3].[Ru+3].[Ru+4] [Ruthenium red, ammoniated ruthenium oxychloride]?
effect of channel inhibitor on HAMLET-induced cell death [1]: no effect on viability; effect of ion channel inhibitor on HAMLET-induced change in cell morphology [2]: did not prevent the morphological changes

Which “potassium channel activity (fluorescence signal)” value (“potassium channel activity” for short) [3] does the source give for “Alpha 1: α-lactalbumin peptide, residue 1-40 (EQLTKCEVFRELKDLKGYGGVSLPEWVCTTFHTSGYDTQA; UniProt P00711 20-59, looked up, fragment)” here?
Its value is “did not open potassium channels”.

With CCCCCCCC/C=C\CCCCCCCC(=O)O [oleic acid, reference compound] as the molecule, how does the “number of differentially expressed genes” value [4] read?
Its value is “two”.

And the “fluxes of Ca^2+, K^+ and Na^+” value (tumor cells [5])?
Its value is “no effect”.

And the “ion channel activating activity” value (tumor cells [5]; at concentrations relevant for the HAMLET complex)?
Its value is “did not show ion channel activating activity”.

“Alpha 2: α-lactalbumin peptide, residue 81-123 (LDDDLTDDIMCVKKILDKVGINYWLAHKALCSEKLDQWLCEKL; UniProt P00711 100-142, looked up, fragment)” was tested. Which “potassium channel activity” value [3] did it give?
The value was “did not open potassium channels”.

With “Beta: α-lactalbumin peptide, residue 41-80 (IVQNNDSTEYGLFQINNKIWCKDDQNPHSSNICNISCDKF; UniProt P00711 60-99, looked up, fragment)” as the molecule, how does the “potassium channel activity” value [3] read?
Its value is “did not open potassium channels”.

B1: α-lactalbumin: native α-lactalbumin purified from human milk (protein, UniProt P00709 20-142, looked up)
Alpha-lactalbumin: KQFTKCELSQLLKDIDGYGGIALPELICTMFHTSGYDTQAIVENNESTEYGLFQISNKLWCKSSQVPQSRNICDISCDKFLDDDITDDIMCAKKILDIKGIDYWLAHKALCTEKLEQWLCEKL
With B1 as the molecule, how does the “fluxes of Ca^2+, K^+ and Na^+” value (tumor cells [5]) read?
The value was “no effect”.

B2: Oleate-HAMLET: complex from EDTA treated alphalactalbumin converted on a column conditioned with sodium oleate (protein, UniProt P00709 20-142, looked up)
Alpha-lactalbumin: KQFTKCELSQLLKDIDGYGGIALPELICTMFHTSGYDTQAIVENNESTEYGLFQISNKLWCKSSQVPQSRNICDISCDKFLDDDITDDIMCAKKILDIKGIDYWLAHKALCTEKLEQWLCEKL
modifications: sodium oleate complex
What does the source list for B2?
tumoricidal activity compared with OA complex (tumor cells [6]): at least as tumoricidal as the OA complex; Trypan blue (tumor cells [6]; 0.5 mg/ml, Control 88): 1; ATP Activity (tumor cells [6]; 0.5 mg/ml, Control 100): 27%

B3: α-lactalbumin^all-ala mutant: partially unfolded α-lactalbumin with all cysteines mutated to alanine (SEQ ID NO: 1 / 2) (protein)
chain 1: KQFTKAELSQLLKDIDGYGGIALPELIATMFHTSGYDTQAIVENNESTEYGLFQISNKLWAKSSQVPQSRNIADISADKFLDDDITDDIMAAKKILDIKGIDYWLAHKALATEKLEQWLAEKL
chain 2: MKQFTKAELSQLLKDIDGYGGIALPELIATMFHTSGYDTQAIVENNESTEYGLFQISNKLWAKSSQVPQSRNIADISADKFLDDDITDDIMAAKKILDIKGIDYWLAHKALATEKLEQWLAEKL
Which “K^+ fluxes” value (tumor cells [5]; [7]) does the source give for B3 here?
Its value is “comparable to HAMLET”.

What about the “Na^+ or Ca^2+ fluxes” value (tumor cells [5]; [7]) of the same molecule?
Its value is “weaker”.
